# Source: patent publication US7618958B2, “Stereospecific anxiolytic and anticonvulsant agents with reduced muscle-relaxant, sedative-hypnotic and ataxic effects” (WISYS Technology Foundation, Inc., priority 2004, dated 2009)
# How the values were obtained:
# Male Sprague-Dawley rats [1] = assay: Open-field locomotor activity in rats
# Description: Open-Field Locomotor Activity in Rats
# Male Sprague-Dawley rats, weighing 250-290 grams at the beginning of the experiment were purchased from Charles River Laboratories (Wilmington, Mass.). The animals were housed in groups of four in a colony room maintained at constant temperature (21±2° C.) and humidity (50±10%). The room was illuminated 12 hours per day (lights on at 0600 h). The rats had ad libitum access to food and water. The testing apparatus consisted of Plexiglas chambers (42×42×30 cm) equipped with Digiscan activity monitors (Omnitech Electronics, Columbus, Ohio) that detect interruptions of 16 photobeams spaced 2.5 cm apart and 2.5 cm above the floor. Horizontal activity was monitored for 60 minutes.
# (§1) Drug Administration: All drugs were administered PO 20-60 minutes before behavioral testing.
# (§2) Data Analysis: Results were expressed as the mean±1 SEM. All data were subjected to analysis of variance (ANOVA) followed by individual mean comparisons using Fisher's Least Significant Difference Test (Kirk, 1968) where appropriate. The significance level was set at p<0.05.
# Rats were placed in an open field and the total distance covered by the rat was measured. The test duration was 60 minutes. Compounds producing sedative effects decrease the distance covered.
# Male Sprague-Dawley rats [2] = assay: Rotorod performance in rats
# Description: Rotorod Performance in Rats
# Male Sprague-Dawley rats, weighing 180-200 grams at the beginning of the experiment were purchased from Charles River Laboratories (Wilmington, Mass.). The animals were housed in groups of four in a colony room maintained at constant temperature (21±2° C.) and humidity (50±10%). The room was illuminated 12 hours per day (lights on at 0600 h). The rats had ad libitum access to food and water. The degree of muscle coordination or balance (i.e., ataxia) was determined using a standard accelerating rotorod treadmill (Ugo Basile, Comerio-Varese, Italy or Columbus Instruments, Columbus, Ohio) that was 6 cm in diameter, 24 cm above the base, and run from an initial speed of 2 rpm to a maximum speed of 20 rpm. The time each animal remained on the rotating rod was automatically recorded, up to a maximum of 5 minutes.
# as §1, §2
# The time on the rod for each rat was recorded. Compounds producing ataxia (motor incoordination) decrease the time spent on the rod compared with vehicle-treated animals.
# Male CF1 mice = assay: Protection from pentylenetetrazole-induced seizures; format: in vivo, mouse; conditions: for PTZ Seizures, effective dose: PO 60 min before pentylenetetrazole 125 mg/kg s.c.
# Description: Protection from Pentylenetetrazole-Induced Seizures
# Male CF1 mice weighing 20-22 g at the time of the experiment were purchased from Charles River Laboratories (Wilmington, Mass.). Pentylenetetrazole (Sigma Chemical Co.) was administered at 125 mg/kg s.c. The number of animals surviving was recorded at 30 minutes and 60 minutes after administration of pentylenetetrazole.
# Drug Administration: All drugs were administered PO 60 minutes before administration of pentyenetetrazole.
# Data Analysis: The data are presented as the percent of animals protected from death. The data were analyzed by Chi Square statistics. The significance level was set at p<0.05.
# Mice treated with certain compounds of the present invention were subjected to pentylenetetrazole (PTZ) at 125 mg/kg to induce seizures. The percent of animals protected from death within one hour of PTZ was measured.
# Male Sprague-Dawley rats [3] = assay: Discriminative stimulus effects of chlordiazepoxide in rats (drug discrimination); conditions: for Antianxiety/abuse liability: ratio of lowest effective anxiolytic dose (situational anxiety) and lowest effective dose producing chlordiazepoxide-like effects in drug discrimination
# male Wistar rats = assay: Elevated plus-maze in rats; format: in vivo, rat; conditions: rats, mean, N 6; for Open Entries: SOLVENT mean 2.57; for Closed Entries: SOLVENT mean 7.14; for Total Distance Travelled (m): SOLVENT mean 9.30; for Total Entries: SOLVENT mean 9.71; for % Open Time: SOLVENT mean 20.43; for % Open Entries: SOLVENT mean 25.57; for Time in open arms: SOLVENT mean 50.29; for Time in closed arms: SOLVENT mean 196.29
# Description: Except where noted, the methods used were those of Miroslav M., et al., (2004) Pharmacology, Biochemistry and Behavior 79: 279-290. Experiments were carried out on male Wistar rats (Military Farm, Belgrade, Serbia and Montenegro), weighing 200-240 g. All procedures in the study conformed to EEC Directive 86/609 and were approved by the Ethical Committee on Animal Experimentation of the Medical Faculty in Belgrade. The rats were housed in transparent plastic cages, six animals per cage, and had free access to pelleted food and tap water before and after drug administration. The temperature of the animal room was 22±1° C., the relative humidity 40-70%, the illumination 120 1× and the 12/12-h light/dark period (light on at 06:00 h). All handling and testing took place during the light portion of the cycle. Throughout the study the animals were used only once.
# Midazolam and flumazenil were generously donated from F. Hoffman-La Roche (Basel, Switzerland). Zolpidem was purchased from Toronto Research Chemicals (North York, Canada) and DMCM from Research Biochemicals (Natick, Mass., USA). All drugs were dissolved/suspended with the aid of sonication in a solvent containing 85% distilled water, 14% propylene glycol and 1% Tween 80™, and were administered intraperitoneally, in a volume of 1 ml/kg, 20 min before testing. Doses are expressed as the base forms of the drugs. In the cases of combined treatment, agonists were administered at separate sites, immediately after the antagonist. Each animal received a total volume of 2 ml/kg of compounds tested or appropriate vehicles, at two different injection sites.
# The test apparatus was constructed of sheet metal, with a black rubber floor. It consisted of a maze elevated to a height of 50 cm with two open (50×10 cm) and two enclosed arms (50×10×40 cm), connected by junction area (central platform) measured 10×10 cm. Although the floor was rubberized, a ledge of sheet metal (0.3 cm high) surrounding the open arms was added, to avoid rats falling off. The illumination in the experimental room consisted of one red neon tube fixed on the ceiling, giving light intensity of 10 1× on the surface of the arms. The experiments were carried out during the diurnal phase (between 08:00 and 12:00 h). At the beginning of the experiment, rats were placed in the centre of the maze, facing one of the enclosed arms and observed for 5 min. The observer sat in the same room 1 m from the maze. After each trial, the maze was cleaned with dry and wet towels. Throughout the study, the number of rats per treatment group was 8-14. Each experiment was run over 4 consecutive days, with three control rats per day; as there was no difference in plus-maze activity among control subgroups, they were pooled in a single control group (n=12).
# All numerical data presented in the figures were given as the mean±S.E.M. Each dose-response curve (agonist or antagonist alone or agonist+antagonist) was assessed by a one-way ANOVA. If the ANOVA was significant, each treatment condition was compared with the appropriate solvent control by a Dunnett's test (a=0.05). In case of significant effect in the number of enclosed arm entries, an analysis of covariance (ANCOVA) was performed in the anxiety-related parameters using the number of enclosed arm entries as covariate. Interactions between the agonists and antagonists were analyzed separately with a two-way ANOVA [factors: agonist dose versus cotreatment (an antagonist or saline)]; pairwise comparisons for the assessment of the antagonist influence on the agonist effects were conducted by Tukey's test, one of the methods recommended even in the absence of an overall significant F-test (Wilcox R R. New designs in analysis of variance. Annu Rev Psychol 1987; 38: 29-60). Statistical analyses were performed with commercial statistical software for PC, Stat for Windows R. 5.0.
# [4] = compared with diazepam or triazolam
# [5] = DZP 1.25 mg/kg ip, t test p ≦ 0.05
compound,measurement,setting,value
"C#Cc1ccc2c(c1)C(c1ccccc1Cl)=NCc1nnc(C)n1-2 [XLi-JY-DMH, 8-Acetyleno-5-(2′-chlorophenyl)-1-methyl-4H-s-triazolo-[4,3-a]-1,4-benzodiazepine]",sedative or hypnotic effects (locomotor activity),Male Sprague-Dawley rats [1]; [4],less effective in producing sedative or hypnotic effects than diazepam or triazolam
same,Antianxiety/sedation,"Male Sprague-Dawley rats [1]; ratio of lowest effective anxiolytic dose (situational anxiety) and lowest effective dose producing side effects in locomotor activity, PO",10000
same,ataxia (rotorod),Male Sprague-Dawley rats [2]; [4],less potent in producing ataxia than diazepam or triazolam
same,Antianxiety/ataxia,"Male Sprague-Dawley rats [2]; ratio of lowest effective anxiolytic dose (situational anxiety) and lowest effective dose producing side effects in rotorod, PO",10000
same,"PTZ Seizures, effective dose",Male CF1 mice,<1.0 mg/kg
same,anticonvulsant effects against PTZ-induced seizures,Male CF1 mice; PTZ 125 mg/kg,anticonvulsant effects against PTZ-induced seizures at doses comparable to those for diazepam and triazolam
same,CDP-like effects (drug discrimination),Male Sprague-Dawley rats [3]; [4],less potent in producing CDP-like effects than diazepam or triazolam
same,Antianxiety/abuse liability,Male Sprague-Dawley rats [3],1000
CCOC(=O)c1ncn2c1C(C)N=C(c1ccccc1F)c1cc(C#C[Si](C)(C)C)ccc1-2 (stereo not shown),melting point,,186 to 187 °C
CNC1=Nc2ccc(Br)cc2C(c2ccccc2)=NC1,melting point,,234 to 235 °C
O=C(OCC(F)(F)F)c1ncn2c1CN=C(c1ccccc1)c1cc(Br)ccc1-2,melting point,,202 to 204 °C
"CN1C(=O)CN=C(c2ccccc2)c2cc(Cl)ccc21 [Diazepam, reference compound]","PTZ Seizures, effective dose",Male CF1 mice,<10 mg/kg
same,Open Entries,male Wistar rats; [5],4.83
same,Closed Entries,"male Wistar rats; DZP 1.25 mg/kg ip, t test p = 0.292",5.50
same,Total Distance Travelled (m),"male Wistar rats; DZP 1.25 mg/kg ip, t test p = 0.670",8.59 m
same,Total Entries,"male Wistar rats; DZP 1.25 mg/kg ip, t test p = 0.745",10.33
same,% Open Time,male Wistar rats; [5],46.33%
same,% Open Entries,male Wistar rats; [5],47.00%
same,Time in open arms,"male Wistar rats; DZP 1.25 mg/kg ip, t test p = 0.052",104.17
same,Time in closed arms,"male Wistar rats; DZP 1.25 mg/kg ip, t test p = 0.064",129.50
same,Antianxiety/abuse liability,Male Sprague-Dawley rats [3],5
CCOC(=O)c1ncn2c1CN=C(c1cccs1)c1cc(C#C[Si](C)(C)C)ccc1-2,melting point,,124 to 127 °C
C[Si](C)(C)C#Cc1ccc2c(c1)C(c1ccccc1)=NCc1c(C(=O)OCC(F)(F)F)ncn1-2,melting point,,107 to 110 °C
CN1C(=O)CN=C(c2ccccn2)c2cc(C#C[Si](C)(C)C)ccc21,melting point,,194 to 195 °C
CNC1=Nc2ccc(C#C[Si](C)(C)C)cc2C(c2ccccc2)=NC1,melting point,,210 to 211 °C
CCOC(=O)c1ncn2c1C(C)N=C(c1ccccc1)c1cc(Br)ccc1-2 (stereo not shown),melting point,,164 to 165 °C
CCOC(=O)c1ncn2c1CN=C(c1ccccn1)c1cc(C#C[Si](C)(C)C)ccc1-2,melting point,,205 to 206 °C
CCOC(=O)c1ncn2c1CN=C(c1ccccc1)c1cc(Cl)ccc1-2,melting point,,174 to 175 °C
C#Cc1ccc2c(c1)C(c1ccccn1)=NCC(=O)N2C,melting point,,190 to 191 °C
"C#Cc1ccc2c(c1)C(c1ccccc1F)=NC(C)c1c(C(=O)OCC)ncn1-2 (stereo not shown) [SH-053-2′F-S—CH3, 8-Ethynyl-6-(2-fluorophenyl)-4-methyl-4H-2,5,10b-triaza-benzo[e]azulene-3-carboxylic acid ethyl ester]",Open Entries,"male Wistar rats; SH-053-2′F-S—CH3 10 mg/kg ip, t test p = 0.503",3.33
same,Closed Entries,"male Wistar rats; SH-053-2′F-S—CH3 10 mg/kg ip, t test p ≦ 0.05",4.67
same,Total Distance Travelled (m),"male Wistar rats; SH-053-2′F-S—CH3 10 mg/kg ip, t test p = 0.080",6.91 m
same,Total Entries,"male Wistar rats; SH-053-2′F-S—CH3 10 mg/kg ip, t test p = 0.239",8.00
same,% Open Time,"male Wistar rats; SH-053-2′F-S—CH3 10 mg/kg ip, t test p = 0.536",25.00%
same,% Open Entries,"male Wistar rats; SH-053-2′F-S—CH3 10 mg/kg ip, t test p = 0.147",37.17%
same,Time in open arms,"male Wistar rats; SH-053-2′F-S—CH3 10 mg/kg ip, printed t test line doubtful",60.50
same,Time in closed arms,"male Wistar rats; SH-053-2′F-S—CH3 10 mg/kg ip, t test p = 0.586",183.33
Cc1nnc2n1-c1ccc(C#CC(C)(C)C)cc1C(c1ccccc1Cl)=NC2,melting point,,> 268 °C (dec.)
CCOC(=O)c1ncn2c1C(C)N=C(c1ccccn1)c1cc(C#C[Si](C)(C)C)ccc1-2 (stereo not shown),melting point,,197 to 198 °C
O=C(OCC(Cl)(Cl)Cl)c1ncn2c1CN=C(c1ccccc1)c1cc(Br)ccc1-2,melting point,,113 to 116 °C
CCOC(=O)c1ncn2c1C(C)N=C(c1ccccc1)c1cc(C#C[Si](C)(C)C)ccc1-2 (stereo not shown),melting point,,160 to 162 °C
CC(C)(C)OC(=O)c1ncn2c1CN=C(c1ccccc1)c1cc(Br)ccc1-2,melting point,,222 to 223 °C
Cc1nnc2n1-c1ccc(C#CC(C)(C)C)cc1C(c1ccccc1)=NC2,melting point,,184 to 186 °C
